PubChem BioAssay (NCI)
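Growth conditions: 96-well plates. Treatment: test compound, 48 hours, 5 concentrations. Analysis: linear interpolation between bracketing concentrations; unreached endpoints set to highest concentration. TGI: concentration producing complete growth inhibition.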 Where a SMILES comes first, the peptide text is derived from it. The star is where a group is joined. Boc = CC(C)(C)OC(=O)*

Legend:
Experiment in all cases: growth of human tumour cells (NCI), 48 h
[1] = system: RXF 393 renal
[2] = system: BT-549 breast
[3] = system: 786-0 renal
[4] = system: CAKI-1 renal
[5] = system: OVCAR-4 ovarian
[6] = system: OVCAR-3 ovarian
[7] = system: SF-295 CNS
[8] = system: HOP-62 NSCLC
[9] = system: NCI-H23 lung
[10] = system: K-562 leukemia

| SMILES | TGI [1] [µM] | TGI [2] [µM] | TGI [3] [µM] | TGI [4] [µM] | TGI [5] [µM] | TGI [6] [µM] | TGI [7] [µM] | TGI [8] [µM] | TGI [9] [µM] | TGI [10] [µM] |
| --- | --- | --- | --- | --- | --- | --- | --- | --- | --- | --- |
| CCN(CCO)CC1COc2ccccc2O1 (stereo not given) | > 100 | > 100 | > 100 | > 100 | > 100 | > 100 | > 100 | > 100 | > 100 | > 100 |
| COC(=O)[C@]12CC[C@H]3CN(C(=O)OCc4ccccc4)[C@H]([C@H]31)[C@H](c1ccco1)N2S(=O)(=O)c1ccc(C)cc1 | 38.1 | 35.6 | 37.6 | 89.4 | > 100 | 40.4 | 81.9 | 74.2 | 48.5 | > 100 |
| C=CCOC(=O)CC[N+]1=CCC(c2ccccc2)(c2ccccc2)O1 | > 100 | > 100 | > 100 | > 100 | > 100 | > 100 | > 100 | > 100 | > 100 | > 100 |
| O=C1C[C@H](Sc2ccccc2)C2(OCCO2)[C@@H](Sc2ccccc2)C1 | 4.25 | 5.41 | > 30.2 | 12.8 | 28.4 | 7.94 | 17.9 | 13.6 | 6.08 | 0.673 |
| Clc1ccc(-c2nn3c(-c4ccncc4)nnc3s2)cc1 | 82.1 | > 100 | 61.9 | > 100 | > 100 | > 100 | > 100 | 51.3 | > 100 | > 100 |
| O=C(NCCN1CCOCC1)c1ccc2cc(C(=O)N3CC(CCl)c4ccc([N+](=O)[O-])cc43)[nH]c2c1 (stereo not given) | 20.4 | 92.3 | 38.4 | 52.4 | 32.6 | 33.1 | 13.3 | 30.8 | > 100 | > 100 |
| Nc1c(-c2cccc3ccccc23)c2ccc([N+](=O)[O-])cc2c(=O)n1-c1nc2ccccc2s1 | > 31.3 | > 100 | > 36.2 | > 31.6 | > 53.5 | > 37 | > 34.2 | 27.2 | > 100 | > 100 |
| COc1cc(C2SCC(=O)N2c2ccc(NC(=O)c3ccc(N4C(=O)CSC4c4cc(OC)c(OC)c(OC)c4)cc3)cc2)cc(OC)c1OC (stereo not given) | > 100 | > 100 | > 100 | > 100 | > 100 | > 100 | > 100 | > 100 | > 100 | > 100 |
| COc1cc(NS(C)(=O)=O)ccc1N1Cc2cnc3ccc4[nH]c(C)cc1c4c23 | > 100 | > 100 | 36.5 | 74.5 | > 100 | > 100 | > 100 | 71.9 | > 100 | > 100 |
| CC(C)(C)OC(=O)NCC(=O)NCC(=O)NCC(=O)NCC(=O)O (Boc-GGGG-OH) | > 100 | > 100 | > 100 | > 100 | > 100 | > 100 | > 100 | > 100 | > 100 | > 100 |
| COc1ccc(C2(CC(C)O)SCCCS2)cc1 (stereo not given) | > 100 | > 100 | > 100 | > 100 | > 100 | > 100 | > 100 | > 100 | > 100 | > 100 |
| C/C=C/C=C/c1nc(C#N)c(N)o1 | > 100 | > 100 | > 100 | > 100 | > 100 | > 100 | > 100 | > 100 | > 100 | > 100 |
| CCN(CC)CCOc1ccc(N2C(=O)c3cc(OC)c(OC)cc3C2=O)cc1 | > 100 | > 100 | > 100 | > 100 | > 100 | > 100 | > 100 | > 100 | > 100 | > 100 |
| COc1cc(C2CC(C)(Nc3ccccc3)Oc3cc4c(cc32)OCO4)cc(OC)c1OC (stereo not given) | > 100 | > 100 | > 78.4 | > 71.8 | > 78.5 | 3.52 | 3.57 | > 55.1 | > 33.6 | > 100 |
| CCN(C(=S)N[C@@H](Cc1ccccc1)C(=O)N[C@@H](CC(C)C)C(=O)OC)c1ccccc1 | > 100 | > 100 | > 100 | > 100 | > 100 | > 100 | > 100 | > 100 | > 100 | > 100 |
| COc1ccc2cc3c4cc5c(cc4cc[n+]3cc2c1OC)OCO5 | > 69.6 | 7.83 | > 100 | > 100 | > 100 | 21.4 | > 93 | 64.3 | 65.1 | > 100 |
| O=c1c2cc3c(cc2[nH]c2ncccc12)OCO3 | > 10 | > 10 | > 10 | > 10 | > 10 | > 10 | > 10 | > 10 | > 10 | > 10 |

| SMILES | TGI [1] [µM] | TGI [2] [µM] | TGI [3] [µM] | TGI [4] [µM] | TGI [5] [µM] | TGI [6] [µM] | TGI [7] [µM] | TGI [8] [µM] | TGI [9] [µM] | TGI [10] [µM] |
| --- | --- | --- | --- | --- | --- | --- | --- | --- | --- | --- |
| Cc1csc(-c2cn(C)c3c2C(=O)C(N)=CC3=O)n1 | > 100 | > 100 | > 100 | > 64.4 | > 100 | > 67.3 | 20.8 | 98.5 | > 30 | > 100 |
| CC1CC[C@@]2(OC1)OC1C[C@H]3[C@@H]4CC[C@H]5CC(OC6OC(CO)C(OC7OC(CO)C(O)C(O)C7OC7OC(CO)C(O)C(O)C7O)C(O)C6O)CCC5(C)[C@H]4CCC3(C)C1[C@@H]2C (stereo not given in full) | 2.76 | 3.62 | 5.44 | 10.6 | 2.72 | 5.94 | 11 | 3.65 | 10.7 | 9.01 |
| O=P(c1ccccc1)(c1ccccc1)N1O[C@@H](c2ccccc2)C=C[C@H]1c1ccccc1 | 22.9 | 32.4 | 23.3 | 22.4 | 10.6 | 27.8 | 28.7 | 46.5 | 25.2 | 80.1 |
| CSc1c(C#N)c(N)n2c1C(=O)N(c1ccccc1)C2=S | > 100 | > 100 | > 100 | > 100 | 69.7 | > 100 | > 100 | > 100 | > 100 | > 100 |
| CN(C)CCCN1C(=S)N(CCCN(C)C)c2c3cc(O)ccc3nc3c([N+](=O)[O-])ccc1c23 | 15.1 | 28 | 8.55 | 15 | 10.9 | 5.56 | 19 | 15.3 | 17.1 | > 33 |
| COc1ccc(CC(O)CN2CCOCC2)cc1 (stereo not given) | > 100 | > 100 | > 100 | > 100 | > 100 | > 100 | > 100 | > 100 | > 100 | > 100 |
| CC12CC(=O)C3C(C(=O)C1)C32C (stereo not given) | > 100 | > 100 | > 100 | > 100 | > 100 | > 100 | > 100 | > 100 | > 100 | > 100 |
| O=C1c2cc3c(cc2CC1Br)CCC3 (stereo not given) | 4.04 | 4.49 | 3.47 | 3.23 | 3.86 | 3.86 | 11.5 | 30.8 | 9.27 | 7.04 |
| CCCn1c(CN(Cc2nc3ccccc3n2CCC)Cc2nc3ccccc3n2CCC)nc2ccccc21 | 8.96 | > 58.4 | > 32.3 | > 29 | 26.1 | > 30.4 | 30.7 | > 91 | > 49.6 | 32.1 |
| CCCNC(=O)CCC(C)[C@H]1CCC2C3C(C[C@H](OC(C)=O)[C@@]21C)[C@@]1(C)CCC2(C[C@H]1C[C@H]3OC(C)=O)OOC1(CCC(C)CC1)OO2 (stereo not given in full) | > 100 | 60.5 | 33.4 | 5.14 | 33.9 | 18.5 | 52.5 | 3.47 | 18.7 | > 100 |
| N#C/C(=C\c1cc(Br)c(O)c(Br)c1)c1cccnc1 | > 100 | 56.9 | 70.5 | > 100 | > 100 | 44 | 46.7 | 97.2 | 52.8 | > 100 |
| O=C1CN2C(c3ccccc3)=NN(c3ccc([N+](=O)[O-])cc3)C2(c2ccccc2)c2cc(Cl)ccc2N1CC1CC1 (stereo not given) | > 100 | > 100 | > 100 | > 100 | > 100 | > 100 | > 100 | > 100 | > 100 | > 100 |
| CS(=O)(=O)OCCn1c(=O)n(CCOS(C)(=O)=O)c(=O)n(CCOS(C)(=O)=O)c1=O | > 100 | > 100 | > 100 | > 100 | > 100 | > 100 | > 100 | > 100 | > 100 | > 100 |
| O=c1cc(N=P(c2ccccc2)(c2ccccc2)c2ccccc2)n(-c2ccccc2)c(=O)n1-c1ccccc1 | 15.1 | 95.6 | 25.2 | > 100 | 45.9 | 32.3 | 85.8 | 32.4 | 32 | 23.9 |
| CC(C)/C(Cl)=N\OC(=O)Nc1ccc(C#N)cc1 | 8.01 | 26.6 | 11.8 | 10.3 | 3.24 | 30.5 | 33.2 | 31.6 | 30 | 4.82 |
| CCOc1cc(C2CC(c3ccc(NS(=O)(=O)c4cc([N+](=O)[O-])ccc4C)cc3)=NN2C(=O)c2ccccc2)ccc1O (stereo not given) | 42.6 | 93.3 | 46.7 | > 100 | > 100 | 36.3 | 87.7 | 47.2 | 69 | > 100 |
